The test system of one series is SARS-CoV-2 virus. It counts as cell-based.
The nature of series [1]: Acute oral toxicity (oral gavage). Format: in vivo, mice and rats. The protocol:
(§1) Different doses of Chlorophyllin (100 to 5000 mg/kg body weight) were given to mice and rats (6 males, 6 females) by oral gavage in an accredited facility for animal toxicity testing.

Series [2] can be described thus: 28 day repeat dose toxicity. Format: in vivo, rats. Particulars: 1000 mg/kg body weight daily for 28 consecutive days. The protocol:
as §1

A further series has as its system neutrophils. Briefly: Phase I study: absolute neutrophil count (ANC) in blood. It counts as in vivo, human. Here is the method:
(§2) An open label Phase I clinical study was conducted to assess pharmacodynamics of sodium copper Chlorophyllin in healthy adult, human male subjects under fasting conditions. The study was approved by Drug Controller General of India (DCGI). The trial is registered with the Clinical Trial Registry of India (CTRI/2018/09/015576). Five healthy male subjects were allowed to fast overnight and one Chlorophyllin tablet (750 mg) was administered to each subject by oral route along with ˜200 ml water. The subjects were given breakfast, lunch and snacks and a second tablet of Chlorophyllin (750 mg) was administered to each subject by oral route along with 200 ml water after 12 hr.
(§3) Chlorophyllin tablets comprising Chlorophyllin or salts thereof (750 mg), were administered to healthy human subjects after overnight fasting. Blood samples were collected through an indwelling intravenous cannula (Venflon) placed in the fore arm vein of the subjects at different time intervals. Absolute neutrophil count (ANC) and white blood cell (WBC) counts were measured. Serum was separated and chemokine concentration in the serum was measured using cytometric bead array.

The next series deals with white blood cells. The experiment in a line: Phase I study: white blood cell (WBC) count in blood. Format: in vivo, human. The settings on record: 8-16 hr after first dose of 750 mg. Here is the method: as §2, §3
A further series deals with lymphocytes. The experiment in a line: Phase I study: absolute lymphocyte count in blood. Format: in vivo, human. Particulars: 750 mg tablets, healthy subjects. Here is the method:
as §2, §3

For series [3], the system named is CD34+ hematopoietic stem and progenitor cells. The experiment in a line: Phase I study: CD34+ hematopoietic stem and progenitor cells in blood by flow cytometry. Format: in vivo, human. The settings on record: 750 mg tablets, five subjects. Here is the method: as §2
Blood sample at each time point was also collected in K2EDTA vacutainer tube and erythrocytes were lysed using RBC lysis buffer. Then cells were stained with fixable far red live dead reagent and PE-CD34 and FITC-CD45 antibodies at 4° C. and fixed with 4% formaldehyde. The frequency of CD34+ hematopoietic stem and progenitor cells in the blood was determined by flow cytometry and FlowJo software.
On the technique in general: A flow cytometer gives signals particle by particle.

A short description of series [4]: Phase I study: tolerability in healthy human subjects. The settings on record: 750 mg given twice a day, five subjects. It counts as in vivo. The protocol: as §2
Another series has as its system Vero CCL-81 cells. The settings on record: 5 μM.

The results in this text go back to US20220305023A1, “Chlorophyllin Containing Pharmaceutical Composition For Prevention Of Pathogenesis Of Coronavirus Disease” (priority 2021, published 2022).

Sodium copper Chlorophyllin: in the series on SARS-CoV-2 virus (0.1 micro molar), the “effect on SARS-CoV-2 virus multiplication” value is “did not inhibit”. Further, the “inhibition of SARS-CoV-2 multiplication” value in the series on SARS-CoV-2 virus (5 micro-molar, 72 hr, Vero CCL-81 cells) is on record as approximately 87%. The “concentration required for ~90% inhibition of multiplication of SARS-CoV-2 virus” value in the series with SARS-CoV-2 virus (Vero CCL-81 cells, 72 hr) is given as “about 5 micro molar”. The EC50 with SARS-CoV-2 virus (Vero CCL-81 cells, 72 hr, read-out: concentration required to inhibit SARS-CoV-2 multiplication by 50% (EC50)) is less than 1000 nM. For the same substance, the “effect on multiplication of SARS-CoV-2 virus” value in the series with SARS-CoV-2 virus (less than 1 micro-molar) is listed as “did not significantly decrease”. The signs of toxicity result in series [1] (rodents, indicated doses (acute up to 5000 mg/kg; 1000 mg/kg for 28 days)) is “no signs of toxicity”. The LD50 entry in series [1] (rodents, oral, proposed from absence of toxicity) was “higher than 5000 mg/kg body weight”. Also, in series [1] (up to 5000 mg/kg body weight, oral gavage, mice and rats), the “tolerability of acute oral dose” value is on record as “well tolerated”. Moreover, the “tolerability of repeat dose” value in [2] is “well tolerated”. The “time to ANC increase after first dose” value with neutrophils (750 mg, 4 hr before second dose) was not above 8 h. For the same substance, in the series with neutrophils (8-16 hr after first dose of 750 mg, fasting, five subjects), the “increase in ANC relative to pre-dose value” is 12.4-32.5%. For the same substance, in the series on white blood cells, the “increase in WBC count relative to pre-dose value” is 12.8-26.5%. In addition, the “increase in lymphocyte counts in human blood as compared to pre-dose value” in the series on lymphocytes is reported as “up to 30%”. For the same substance, the “relative decrease in percentage of CD34+ HPSCs in human blood as compared to pre-dose value” in [3] was 50-85%. The “tolerability in human subjects” value in series [4] is reported as “well tolerated”. In addition, the “cytotoxicity in the target cells” value with Vero CCL-81 cells is on record as “without causing cytotoxicity”.
